Data reported in patent publication US20250325581A1, “USE OF SODIUM PENTABORATE PENTAHYDRATE AS A CHEMOTHERAPEUTIC AGENT” (YEDITEPE UNIVERSITESI, priority 2022, published 2025).
Like-named read-outs stand apart in the source and are kept apart here.

How the values were obtained:
[1] = test system: A498 renal cancer cells
Description: (§1) The effective dose of NaB on renal cancer was determined by colorimetric tetrazolium (MTS) viability assay on renal cancer cells (ACHN and A498) and healthy renal cells (RPTEC). MTS (3-(4,5-dimethyl-thiazol-2-yl)-5-(3-carboxy-methoxy-phenyl)-2-(4-sulfo-phenyl)-2H-tetrazolium) is a colorimetric assay based on the tetrazolium salt. The assay measures the enzyme activity which reduces MTS to the purple formazan. Cell cultures incubated for two hours are read by measuring the absorbance at 490 nm wavelength by means of ELISA. The NaB compound is dissolved at different concentrations (at ratios of 500 μg/ml, 1000 μg/ml, 1500 μg/ml, 2000 μg/ml, 2500 μg/ml, 3000 μg/ml, 3500 μg/ml for renal cancer cells, and 500 μg/ml, 1000 μg/ml, 2500 μg/ml, 5000 μg/ml, 7000 μg/ml for healthy renal cells) in the medium suitable for the cell used (30 seconds of vortexing is applied after the addition of the agent), filtered through 0.22 micron filters, and sterilized. MTS assays are performed at hours 24, 48, and 72, and as a result, the concentrations of dead cells at the IC50 dose are determined and the next steps are continued with these dosages.

[2] = test system: ACHN renal cancer cells
Description: as §1

[3] = test system: renal cancer cells (ACHN and A498) and healthy renal cells (RPTEC); conditions: IC50 dose for cancer cells applied 72 hours; cancer vs healthy cells
Description: Whether the death rates of renal cancer cells treated with the agent at the dosage determined by the MTS assay are dependent on apoptosis or not is determined by Annexin V assay. […] Annexin V binds to PSs, which were translocated to the outer surface of the cell, thereby making the apoptotic cell visible and it is measured by flow cytometry. Since Annexin V binding can also be observed on the surface of necrotic cells, Propidium Iodide (Red Fluorescence), which stains only dead cells, was added as a second stain. Cells, which are simultaneously stained with Annexin V-FITC (Green Fluorescence) and Propidium Iodide (Red Fluorescence), allow viable cells (FITC−PI−), early apoptotic cells (FITC+PI−), and late apoptotic or necrotic cells (FITC+PI+) to be distinguished from each other. Cells marked with Annexin V-FITCH-conjugated markers are analyzed by flow cytometry.

[4] = test system: ACHN and A498 renal cancer cells; conditions: dosage determined by the MTS assay
Description: Cell proliferation analyses of renal cancer cells treated with the agent at the dosage determined by the MTS assay are performed by EdU (Ethinyl-2′-deoxyuridine) assay. […] For this assay, 10 uM EdU is applied to the cells cultured on slides placed in 6-well plates. Following the incubation, cells are fixed for 15 minutes with 3.7% formaldehyde diluted in PBS, and then washed with 3% BSA also diluted in PBS. Cell membrane permeability is increased by treatment with 0.5% nonionic surfactant diluted in PBS at room temperature for 20 minutes. After a final washing with 3% BSA solution, the reaction cocktail is added to the cells. Cells are incubated at room temperature for 30 minutes, and then the EdU-stained cells, which are actively synthesizing DNA, are observed under a confocal microscope.

sodium pentaborate pentahydrate
IC50 determined by MTS ([1]; A498, Hour 24): >7000 µg/mL
IC50 determined by MTS ([1]; A498, Hour 48): 1900 µg/mL
IC50 determined by MTS (dose which killed 50% of renal cancer cells) ([1]; A498, Hour 72): 1400 µg/mL
IC50 ([1]; read-out: dose which killed 50% of renal cancer cells, A498, molar equivalent of the μg/ml value): 4.7 mM
IC50 determined by MTS ([2]; Hour 24): >7000 µg/mL
IC50 determined by MTS ([2]; Hour 48): 2000 µg/mL
IC50 determined by MTS (dose which killed 50% of renal cancer cells) ([2]; Hour 72): 1550 µg/mL
IC50 ([2]; read-out: dose which killed 50% of renal cancer cells, molar equivalent of the μg/ml value): 5.2 mM
programmed cell death (apoptosis) [3]: selectively leads cancer cells to programmed cell death
effect on cell proliferation [4]: slows down cell proliferation
